Legend:
Assay type in all cases: cell-based
[1] = system: Raji cells; assay: Cell death-inducing effect of rituximab in Raji cells, trypan blue staining; settings: cell viability
Description: (§1) Referring to FIG. 7, the horizontal axis is the rituximab concentration (μg/mL) and the vertical axis is the cell viability (%). […] However, the cell viability was clearly higher in RR1 cells, confirming that they are resistant to rituximab.

[2] = system: RR1 cells; assay: Cell death-inducing effect of rituximab in RR1 cells, trypan blue staining
Description: Raji cells, a burkitt lymphoma cell line, were modified to be rituximab-resistant and named RR1 cells.
as §1

[3] = system: KMS-28BM cells; assay: Cell death in KMS-28BM cells by each compound in combination with rituximab, trypan blue staining; settings: 10 days with 0.1 M9, 0.01 μM M14/M15/M16, 0.5 μM M18/M19, then human serum and rituximab
Experimental: As a control, compounds untreated KMS-28BM cells were seeded in 75 cm^2 flasks and incubated for 10 days at 37° C. and 5% CO2. KMS-28BM cells were seeded into 75 cm^2 flasks and pre-cultured for 24 h. After incubation, KMS-28BM cells were treated with […], 0.01 μM M14, 0.01 μM M15, 0.01 μM M16, 0.5 μM M18, and 0.5 μM M19 at final concentrations, and incubated for 10 days at 37° C. and 5% CO2. This added amount is a concentration lower than the IC50 of the above compounds for KMS-28BM cells.
After 10 days of incubation, cells were seeded into 96-well plates, human serum and 10 µg/mL rituximab were added, and cell viability was determined by the trypan blue staining.
For controls, only 0.5% DMSO (diluted in PBS) used to dissolve the compounds was added.

Question: Which results are given for “rituximab: an anti-CD20 monoclonal antibody”?
Answer: IC50 of Raji cells to rituximab [1]: 0.121 µg/mL; IC50 of RR1 cells to rituximab ([2]; RR1 cells, cell viability): 98 µg/mL; resistance of RR1 cells to rituximab relative to Raji cells ([2]; ratio of IC50 RR1 / Raji): approximately 809 times; cell death induction compared to control [3]: did not induce cell death

— patent publication US20260200903A1, “PHARMACEUTICAL COMPOSITION FOR AMELIORATING MALIGNANT DISEASES” (KINKI UNIVERSITY, priority 2020, published 2026)
